From EP0006752A1, “Compositions for the treatment of chronic trypanosomiasis infections” (Merck & Co., Inc., priority 1978, dated 1980)
Several values for one entry are separate records, joined by “and”; a condition that tells them apart may be missing. Equal values may be shown once.

Columns and labels:
[1] = system: T. brucei TREU 667/1; assay: Chronic (21 day old) T. brucei TREU 667/1 infection in mice, cure/relapse after i.p. treatment; format: in vivo, Trypanosoma brucei; conditions: for time after treatment until signs of relapse: some of the mice treated with the prophylactic drugs (pretreatment experiments of Table 3); for Number Cured Out of Total Treated: mice infected for 21 days
Excerpt: The mice used were adult CFLP females approximately 25-30 g. and maintained on standard laboratory diet throughout the experiments.
Two stabilates were used throughout the experiments, the main one was T. brucei TREU 667/1 originally obtained from Dr. A. R. Gray, Edinburgh, and the other T. brucei LUMP 1001 obtained from Professor W. H. R. Lumsden, London. These were cryogenically maintained as previously described in Jennings, Whitelaw & Urquhart, Parasitol. 75, 143-153 (1977).
Each mouse was inoculated intraperitoneally with 1 x 10^4 trypanosomes prepared from the stabilate in phosphate glucose saline pH 8.0. Chemotherapy commenced at various times post inoculation. Each mouse was weighed and the requisite dose of drug administered intraperitoneally in a volume of 0.1 ml./5g. body weight.
Compounds I, II and III were used in crystalline powder forms. These were first ground finely in an agate mortar and then suspended in physiological saline for intraperitoneal injection. A drop of detergent (Tween 80) was added to the suspensions to facilitate wetting. Care was taken during dispensing that the suspensions were properly dispersed, and because of some slight unavoidable settlement in the syringe, the mice were always injected at random and usually not more than 3 mice were injected from the one syringe full of drug suspension. As the regimen was usually 4 daily doses at the respective drug concentration, any errors were evenly distributed.
The other established drugs used were Berenil (diminazene aceturate, obtained from Fabwerke, Hoechst, Germany, 40 mg./kg. unless otherwise specified), Ethidium (homidium bromide 7.5 mg./kg.) and Prothidium (pyrithidium bromide 10 mg./kg. obtained from Boots Pure Drug Co., England) and Samorin (isometamidium 2 mg./kg. obtained from May & Baker Ltd.). […]
The mice were examined for parasites on the day treatment was initiated (usually day 3 or 21 of infection) by examination of a drop of tail blood under x40 objective (wet film technique). Subsequent to treatment they were examined every 2 days for 6 days and thereafter once per week until relapse occurred or until the experiment was terminated (in some instances 6-7 months).
The initial work with Berenil was carried out using the dose rate of 40 mg./kg. which was the dose of drug used in all the original work on chronic infections.
In addition, groups of mice were given Berenil and the Compound III simultaneously, or one injection of Berenil followed by one injection of Compound III in order to compress the treatment into the minimum number of injections.

[2] = system: T. brucei TREU 667/1; assay: Early (3 day old) T. brucei TREU 667/1 infection in mice, cure after i.p. treatment; format: in vivo, Trypanosoma brucei; conditions: for Number Cured Out of Total Treated: CFLP mice infected for 3 days
Excerpt: The mice used were adult CFLP females approximately 25-30 g. and maintained on standard laboratory diet throughout the experiments. Two stabilates were used throughout the experiments, the main one was T. brucei TREU 667/1 originally obtained from Dr. A. R. Gray, Edinburgh, and the other T. brucei LUMP 1001 obtained from Professor […], London. These were cryogenically maintained as previously described in Jennings, […], Parasitol. 75, 143-153 (1977). Each mouse was inoculated intraperitoneally with 1 x 10^4 trypanosomes prepared from the stabilate in phosphate glucose saline pH 8.0. Chemotherapy commenced at various times post inoculation. Each mouse was weighed and the requisite dose of drug administered intraperitoneally in a volume of 0.1 ml./5g. body weight. Compounds I, II and III were used in crystalline powder forms. These were first ground finely in an agate mortar and then suspended in physiological saline for intraperitoneal injection. A drop of detergent (Tween 80) was added to the suspensions to facilitate wetting. Care was taken during dispensing that the suspensions were properly dispersed, and because of some slight unavoidable settlement in the syringe, the mice were always injected at random and usually not more than 3 mice were injected from the one syringe full of drug suspension. As the regimen was usually 4 daily doses at the respective drug concentration, any errors were evenly distributed. […] All were prepared according to the manufacturer's instructions and were injected intraperitoneally. The mice were examined for parasites on the day treatment was initiated (usually day 3 or 21 of infection) by examination of a drop of tail blood under x40 objective (wet film technique). […] The three compounds, I, II and III were used at various dose levels against an early infection of T. brucei TREU 667/1 in CFLP. The dose regimen was initiated 3 days after infection and the intraperitoneal injections of drug suspension were given daily.

[3] = system: T. brucei LUMP 1001; conditions: 21 day old infection; Berenil at 40 mg./kg.; cited from earlier work
[4] = system: T. brucei LUMP 1001; assay: Chronic (21 day old) T. brucei LUMP 1001 infection in mice, cure/relapse after i.p. treatment; format: in vivo, Trypanosoma brucei
Excerpt: The mice used were adult CFLP females approximately 25-30 g. and maintained on standard laboratory diet throughout the experiments. Two stabilates were used throughout the experiments, the main one was T. brucei TREU 667/1 originally obtained from Dr. A. R. Gray, Edinburgh, and the other T. brucei LUMP 1001 obtained from Professor […], London. These were cryogenically maintained as previously described in Jennings, […], Parasitol. 75, 143-153 (1977). Each mouse was inoculated intraperitoneally with 1 x 10^4 trypanosomes prepared from the stabilate in phosphate glucose saline pH 8.0. Chemotherapy commenced at various times post inoculation. Each mouse was weighed and the requisite dose of drug administered intraperitoneally in a volume of 0.1 ml./5g. body weight. Compounds I, II and III were used in crystalline powder forms. These were first ground finely in an agate mortar and then suspended in physiological saline for intraperitoneal injection. A drop of detergent (Tween 80) was added to the suspensions to facilitate wetting. Care was taken during dispensing that the suspensions were properly dispersed, and because of some slight unavoidable settlement in the syringe, the mice were always injected at random and usually not more than 3 mice were injected from the one syringe full of drug suspension. As the regimen was usually 4 daily doses at the respective drug concentration, any errors were evenly distributed. […] All were prepared according to the manufacturer's instructions and were injected intraperitoneally. The mice were examined for parasites on the day treatment was initiated (usually day 3 or 21 of infection) by examination of a drop of tail blood under x40 objective (wet film technique). […] It was known that T. brucei LUMP 1001 relapsed after treatment of a 21 day old infection Jennings, […], Parasitol. 75, 143-153 (1977), and indeed tended to relapse earlier after treatment with Berenil at 40 mg./kg. than any of the other stabilates tested (approximately 20 days). The original experiment using 40 mg./kg. Berenil as pre-treatment followed by Compound III was disappointing, as only 3 out of a total of 27 mice appeared to be cured by the various dose regimens. The experiment was therefore repeated increasing the pretreatment dose of Berenil to 60 mg./kg. and 80 mg./kg., the latter being given as two doses of 40 mg./kg. on consecutive days to avoid the possibility of deaths due to the toxicity of Berenil at that dose level in mice. This pretreatment was followed by administration of Compound III at 4 doses of 80 mg./kg. and in both instances where the increased Berenil dose level (60 mg./kg. and 80 mg./kg.) was used, satisfactory permanent cures were accomplished, whereas in the respective controls all of the mice relapsed.

[5] = Berenil 40 mg./kg. day 21, no further treatment
[6] = single drug 4 x 20 mg./kg. daily i.p.
[7] = 4 x 5 mg./kg. daily i.p., cure = no parasites in blood for at least 90 days
[8] = 4 x 20 mg./kg. daily i.p., cure = no parasites in blood for at least 90 days

Compound: N=C(N)c1ccc(N=NNc2ccc(C(=N)N)cc2)cc1 [Berenil, diminazene aceturate]
- time for which all circulating trypanosomes are cleared from the bloodstream ([1]; 5 mg./kg. Berenil): up to 20 days
- outcome after treatment ([1]; 21 day old infection, 160 mg./kg. Berenil given subcutaneously): relapsed
- No. Cured Out of Total Treated ([1]; Berenil 5 mg./kg. day 21, no further treatment): 0/10
- No. Cured Out of Total Treated ([1]; Berenil 5 mg./kg. day 21, then Berenil 5 mg./kg. day 24): 0/10
- No. Cured Out of Total Treated ([1]; Berenil 20 mg./kg. day 21, no further treatment): 0/10
- No. Cured Out of Total Treated [1, 5]: 1/10 and 1/9
- cure rate ([1]; Berenil (40 mg./kg.) given alone, in the particular experiment with the simultaneous group): 60%
- outcome after repeated treatment ([1]; infected 21 days, Berenil alone 40 mg./kg., retreated every 30 days for a total of 5 months, a proportion of mice): eventually become parasitaemic again
- permanent cure of early infections ([2]; early infection, Berenil 5 mg./kg.): can be permanently cured
- time to relapse after treatment [3]: approximately 20 days
- No. Cured Out of Total Treated [4, 5]: 0/10 and 0/9
- No. Cured Out of Total Treated ([4]; Berenil 60 mg./kg. day 21, no further treatment): 0/8
- No. Cured Out of Total Treated ([4]; Berenil 80 mg./kg., given as 2 x 40 mg./kg. on day 21 and day 24, no further treatment): 0/8

Compound: CC[n+]1c(-c2ccccc2)c2cc(N/N=N/c3cccc(C(=N)N)c3)ccc2c2ccc(N)cc21 [Samorin, isometamidium]
- No. Cured Out of Total Treated ([1]; Samorin 2.0 mg./kg. day 21, no further treatment): 0/10
- time after treatment until signs of relapse [1]: 6-7 months

Compound: Cn1c([N+](=O)[O-])cnc1C1=NOC2CCCCC12 (stereo not drawn) [Compound II, 3'-(1-methyl-5-nitroimidazol-2-yl)-4'5'-tetramethylene-Δ^2-isoxazoline]
- Number Cured Out of Total Treated [1, 6]: 0/9
- cure rate ([2]; 3-day old infection, 4 doses of 80 mg./kg.): 100%
- Number Cured Out of Total Treated [2, 7]: 0/8
- Number Cured Out of Total Treated [2, 8]: 2/8
- Number Cured Out of Total Treated ([2]; 4 x 80 mg./kg. daily i.p., separate experiment): 10/10

Compound: CC[n+]1c(-c2ccccc2)c2cc(N)ccc2c2ccc(N)cc21 [Ethidium, homidium bromide]
- No. Cured Out of Total Treated ([1]; Ethidium 7.5 mg./kg. day 21, no further treatment): 0/10

Compound: Cn1c([N+](=O)[O-])cnc1COC(N)=O [Compound I, 1-methyl-5-nitroimidazol-2-ylmethylcarbamate]
- Number Cured Out of Total Treated [2, 7]: 0/8
- Number Cured Out of Total Treated [2, 8]: 0/8

Compound: Cc1cc(Nc2ccc3c(c2)c(-c2ccc(N)cc2)[n+](C)c2cc(N)ccc32)nc(N)[n+]1C.[Br-].[Br-] [Prothidium, pyrithidium bromide]
- No. Cured Out of Total Treated ([1]; Prothidium 10.0 mg./kg. day 21, no further treatment): 0/8
- time after treatment until signs of relapse [1]: 6-7 months

Compound: Cn1c([N+](=O)[O-])cnc1C1=NOC2CCCCCCC12 (stereo not drawn) [Compound III]
- period after treatment until the last of the mice relapsed ([1]; established (21 day) infection, 4 doses at 80 mg./kg.): 42 days
- Number Cured Out of Total Treated [1, 6]: 0/9 and 0/10 and 0/8
- Number Cured Out of Total Treated ([1]; single drug 4 x 80 mg./kg. daily i.p.): 0/10
- No. Cured Out of Total Treated ([1]; no pretreatment, III 4 x 20 mg./kg. commencing day 24): 0/8
- cure ([2]; 3-day old infection, 4 doses at 20 mg./kg.): 100%
- Number Cured Out of Total Treated [2, 7]: 2/8
- Number Cured Out of Total Treated [2, 8]: 8/8
- No. Cured Out of Total Treated ([4]; no pretreatment, III 4 x 80 mg./kg. commencing day 24): 0/10
